Structures are written as SMILES.

The target of one test is T1, Human CARM1 (PRMT4) (Homo sapiens, UniProt Q86X55).
T1 construct: Flag-CARM1-His was eluted with 200 ug/ml FLAG peptide in buffer A; made in house; host or cells: HEK 293F cells infected with recombinant baculovirus (pFastBacMam)
T1 sequence (Q86X55 1-585 isoform Q86X55-1): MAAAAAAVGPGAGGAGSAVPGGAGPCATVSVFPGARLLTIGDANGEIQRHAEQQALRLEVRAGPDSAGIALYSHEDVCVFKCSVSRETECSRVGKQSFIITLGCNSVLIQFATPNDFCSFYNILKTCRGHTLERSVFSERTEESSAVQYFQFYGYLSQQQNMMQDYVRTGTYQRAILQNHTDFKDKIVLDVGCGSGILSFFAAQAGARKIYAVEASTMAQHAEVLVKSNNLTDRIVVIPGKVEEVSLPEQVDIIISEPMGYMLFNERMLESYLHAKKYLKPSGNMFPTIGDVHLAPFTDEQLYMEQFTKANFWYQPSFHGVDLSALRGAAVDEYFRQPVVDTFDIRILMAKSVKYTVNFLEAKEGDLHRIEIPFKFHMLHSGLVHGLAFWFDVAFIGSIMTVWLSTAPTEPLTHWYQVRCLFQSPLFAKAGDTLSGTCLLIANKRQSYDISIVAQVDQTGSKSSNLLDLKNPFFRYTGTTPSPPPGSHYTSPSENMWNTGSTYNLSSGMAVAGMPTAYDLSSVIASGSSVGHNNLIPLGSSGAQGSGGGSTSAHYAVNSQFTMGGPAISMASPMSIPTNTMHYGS
The test can be described thus: CARM1 enzyme assay on peptide substrates (3H-SAM Flashplate). The following applies: Biochemical assay; CARM1 0.25 nM, 3H-SAM 30 nM, peptide 250 nM; read-out: Biochem IC50.

Test [1] has as its system asymmetric di-methyl PABP1 in RKO cells. The test can be described thus: RKO methylation assay: In Cell Western (ICW) for asymmetric di-methyl PABP1 (PABP1me2a). As to conditions: Cellular-based (PABP1me2a) ICW (In Cell Western) assay. The method in brief:
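In-cell western on compound-exposed RKO cells (48 hours): asymmetric di-methyl PABP1 detected by antibody at 800 nm, DNA content by DRAQ5 at 700 nm. Percent inhibition from signal ratios against DMSO (minimum) and 20 μM reference compound (maximum) wells; IC50 curves fitted from triplicates.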

Usually IC50 stands for the concentration that inhibits the measured activity by half. For the compound `CCc1noc(C)c1-c1nc(-c2cc(OC[C@H](O)CNC)ccc2Cl)nc(N2Cc3cccnc3C2)c1C` [Example 226], the IC50 worked out at 4.6 nM at Human CARM1 (PRMT4) and 134 nM in test [1] (Homo sapiens, RKO, 48 h).
Taken in the same sequence, the figures for `CCc1onc(C)c1-c1nc(-c2cc(OC[C@H](O)CNC)ccc2Cl)nc(N2CC3(CN(CC(F)(F)F)C3)C2)c1C` [Example 227] were 8 nM and 59 nM.
With `CNC[C@@H](O)COc1ccc(Cl)c(-c2nc(-c3c(C)noc3C)c(C)c(N3CC4(CC(OC(F)(F)F)C4)C3)n2)c1` [Example 228], the IC50 on Human CARM1 (PRMT4) amounted to 4.7 nM; in test [1] (Homo sapiens, RKO, 48 h), 73 nM.
Taken in the same sequence, the figures for `CNC[C@@H](O)COc1ccc(Cl)c(-c2nc(-c3c(C)noc3C)c(C)c(N3Cc4ccc(N5CC(OC)C5)nc4C3)n2)c1` [Example 229] were 1.9 nM and 14 nM.
Consider `CCOC1CC2(C1)CN(c1nc(-c3cc(OC[C@H](O)CNC)ccc3Cl)nc(-c3c(C)noc3C)c1C)C2` [Example 231], for which the IC50 at Human CARM1 (PRMT4) amounted to 4.6 nM; in test [1] (Homo sapiens, RKO, 48 h), 41 nM.
The matching figures for `CNC[C@@H](O)COc1ccc(Cl)c(-c2nc(-c3c(C)noc3C)c(C)c(N3CCN(C(=O)OCC(F)F)CC3)n2)c1` [Example 232]: 4.9 nM and 348 nM.
Turning to `CNC[C@@H](O)COc1ccc(Cl)c(-c2nc(-c3c(C)c(Cl)nn3C)c(C)c(N3CC4(CN(CC(F)(F)F)C4)C3)n2)c1` [Example 233], the IC50 at Human CARM1 (PRMT4) turned out to be 4.3 nM; in test [1] (Homo sapiens, RKO, 48 h), 29 nM.
Taken in the same sequence, the figures for `CNC[C@@H](O)COc1ccc(Cl)c(-c2nc(-c3c(C)noc3C)c(C)c(N3CC4(CCC(OC(F)(F)F)CC4)C3)n2)c1` [Example 234] were 6.1 nM and 105 nM.
Regarding `CNC[C@@H](O)COc1ccc(Cl)c(-c2nc(-c3c(C)noc3C)c(C)c(N3Cc4nccc(OCC(F)F)c4C3)n2)c1` [Example 235], the IC50 turned out to be 0.7 nM at Human CARM1 (PRMT4) and 54 nM in test [1] (Homo sapiens, RKO, 48 h).
Taken in the same sequence, the figures for `CNC[C@@H](O)COc1ccc(Cl)c(-c2nc(-c3c(C)noc3C)c(C)c(N3Cc4nccc(OC)c4C3)n2)c1` [Example 236] were 1.8 nM and 63 nM.
Taken in the same sequence, the figures for `CNC[C@@H](O)COc1ccc(Cl)c(-c2nc(-c3c(C)noc3C)c(C)c(N3CC4=C(CN(C)CC4)C3)n2)c1` [Example 237] were 0.6 nM and 157 nM.
The matching figures for `CNC[C@@H](O)COc1ccc(Cl)c(-c2nc(-c3c(C)c(Br)nn3C)c(C)c(N3CC4(CC(OC(F)(F)F)C4)C3)n2)c1` [Example 238]: 5 nM and 116 nM.
With `CNC[C@@H](O)COc1ccc(Cl)c(-c2nc(-c3c(C)noc3C)c(C)c(N3CC4(CC(OC(=O)OC)C4)C3)n2)c1` [Example 239], the IC50 came to 4.7 nM on Human CARM1 (PRMT4) and 52 nM in test [1] (Homo sapiens, RKO, 48 h).
The matching figures for `CNC[C@@H](O)COc1ccc(Cl)c(-c2nc(-c3c(C)noc3C)c(C)c(N3CC(C)(C#N)C3)n2)c1` [Example 240]: 4.1 nM and 398 nM.
The matching figures for `CNC[C@@H](O)COc1ccc(Cl)c(-c2nc(-c3c(C)noc3C)c(C)c(N3CC4(CC(OCCOC)C4)C3)n2)c1` [Example 241]: 6.2 nM and 84 nM.
Turning to `CNC[C@@H](O)COc1ccc(Cl)c(-c2nc(-c3c(Br)cnn3C)c(C)c(N3Cc4ccc(N5CCC5)nc4C3)n2)c1` [Example 243], the IC50 at Human CARM1 (PRMT4) stood at 0.8 nM; in test [1] (Homo sapiens, RKO, 48 h), 37 nM.
The matching figures for `CNC[C@@H](O)COc1ccc(Cl)c(-c2nc(-c3c(I)cnn3C)c(C)c(N3Cc4cccnc4C3)n2)c1` [Example 244]: 1.2 nM and 141 nM.
The matching figures for `CCOc1ccc2c(n1)CN(c1nc(-c3cc(OC[C@H](O)CNC)ccc3Cl)nc(-c3c(C)noc3C)c1C)C2` [Example 245]: 2 nM and 38 nM.
On to `CNC[C@@H](O)COc1ccc(Cl)c(-c2nc(-c3c(C)noc3C)c(C)c(N3CC4(CC(O)C4)C3)n2)c1` [Example 246], for which the IC50 on Human CARM1 (PRMT4) worked out at 6.7 nM; in test [1] (Homo sapiens, RKO, 48 h) it was 352 nM.
`CNC[C@@H](O)COc1ccc(Cl)c(-c2nc(-c3c(C)noc3C)c(C)c(N3CC4=C(CN(CC(F)(F)F)CC4)C3)n2)c1` [Example 247]: the IC50 on Human CARM1 (PRMT4) was determined as 4 nM; in test [1] (Homo sapiens, RKO, 48 h) it was 62 nM.
Taken in the same sequence, the figures for `CNC[C@@H](O)COc1ccc(Cl)c(-c2nc(-c3c(C)noc3C)c(C)c(N3Cc4ccc(OCCOC)nc4C3)n2)c1` [Example 249] were 2 nM and 27 nM.
Taken in the same sequence, the figures for `CNC[C@@H](O)COc1ccc(Cl)c(-c2nc(-c3c(C)noc3C)c(C)c(N3CC4(CCC4(F)F)C3)n2)c1` [Example 250] were 3.94 nM and 217 nM.
Taken in the same sequence, the figures for `CNC[C@@H](O)COc1ccc(Cl)c(-c2nc(-c3c(C)noc3C)c(C)c(N3CC(C)(COC)C3)n2)c1` [Example 251] were 6.51 nM and 193 nM.
For `CNC[C@@H](O)COc1ccc(Cl)c(-c2nc(-c3c(C)noc3C)c(C)c(N3CC(C)(CO)C3)n2)c1` [Example 252], the IC50 was 8.01 nM at Human CARM1 (PRMT4) and 561 nM in test [1] (Homo sapiens, RKO, 48 h).
The matching figures for `CNC[C@@H](O)COc1ccc(Cl)c(-c2nc(-c3c(C)noc3C)c(C)c(N3Cc4ccc(O[C@@H]5CCOC5)nc4C3)n2)c1` [Example 253]: 2.36 nM and 29.2 nM.
Taken in the same sequence, the figures for `CNC[C@@H](O)COc1ccc(Cl)c(-c2nc(-c3c(C)noc3C)c(C)c(N3Cc4ccc(O[C@H]5CCOC5)nc4C3)n2)c1` [Example 254] were 2.39 nM and 37.1 nM.
Taken in the same sequence, the figures for `CNC[C@@H](O)COc1ccc(Cl)c(-c2nc(-c3c(C)noc3C)c(C)c(N3CC4(CN(C(=O)OCCOC)C4)C3)n2)c1` [Example 255] were 7.22 nM and 377 nM.
Take `CNC[C@@H](O)COc1ccc(Cl)c(-c2nc(-c3c(C)c(Br)nn3C)c(C)c(N3CC4(CC(OC)C4)C3)n2)c1` [Example 256]: the IC50 came out at 3.96 nM at Human CARM1 (PRMT4) and 43.2 nM in test [1] (Homo sapiens, RKO, 48 h).
`CNC[C@@H](O)COc1ccc(Cl)c(-c2nc(-c3c(C)noc3C)c(C)c(N3CC4=C(CN(C(=O)OC)CC4)C3)n2)c1` [Example 257]: the IC50 is 2.4 nM at Human CARM1 (PRMT4) and 22.7 nM in test [1] (Homo sapiens, RKO, 48 h).
Taken in the same sequence, the figures for `CNC[C@@H](O)COc1ccc(Cl)c(-c2nc(-c3c(C)noc3C)c(C)c(N3Cc4ccc(N(C)C)nc4C3)n2)c1` [Example 258] were 1.83 nM and 29.9 nM.
Taken in the same sequence, the figures for `CNC[C@@H](O)COc1ccc(Cl)c(-c2nc(-c3c(C)noc3C)c(C)c(N3Cc4ccc(N5CC(F)C5)nc4C3)n2)c1` [Example 259] were 2.17 nM and 22.9 nM.
In the case of `CNC[C@@H](O)COc1ccc(Cl)c(-c2nc(-c3c(C)noc3C)c(C)c(N3CC4(CC(OC(C)C)C4)C3)n2)c1` [Example 260], the figures for the IC50 (on Human CARM1 (PRMT4); in test [1] (48 hours)) were 5.95 nM and 45.5 nM, respectively.
Regarding `CNC[C@@H](O)COc1ccc(Cl)c(-c2nc(-c3c(C)noc3C)c(C)c(N3Cc4cccnc4C3)n2)c1` [Example 262], the IC50 at Human CARM1 (PRMT4) amounted to 2.34 nM; in test [1] (Homo sapiens, RKO, 48 h) it was 32.6 nM.
Taken in the same sequence, the figures for `CNC[C@@H](O)COc1ccc(Cl)c(-c2nc(-c3c(C)noc3C)c(C)c(N3CC4(CCC(OC)C4)C3)n2)c1` (stereo partly shown) [Example 263] were 5.36 nM and 90.9 nM.
Turning to `CNC[C@@H](O)COc1ccc(Cl)c(-c2nc(-c3c(C)noc3C)c(C)c(N3CC4(CN(CCC(F)(F)F)C4)C3)n2)c1` [Example 264], the IC50 on Human CARM1 (PRMT4) is 4.11 nM; in test [1] (Homo sapiens, RKO, 48 h) it was 51.9 nM.
As to `CNC[C@@H](O)COc1ccc(Cl)c(-c2nc(-c3c(C)c(Cl)nn3C)c(C)c(N3CC4(CN(C(=O)OC)C4)C3)n2)c1` [Example 265], the IC50 worked out at 4.2 nM at Human CARM1 (PRMT4) and 87.7 nM in test [1] (Homo sapiens, RKO, 48 h).
The matching figures for `CNC[C@@H](O)COc1ccc(Cl)c(-c2nc(-c3c(Br)cnn3C)c(C)c(N3CC4(CN(C(=O)OC)C4)C3)n2)c1` [Example 266]: 6.83 nM and 310 nM.
On to `CNC[C@@H](O)COc1ccc(Cl)c(-c2nc(-c3c(Br)cnn3C)c(C)c(N3CC4(CN(CC(F)(F)F)C4)C3)n2)c1` [Example 267], for which the IC50 on Human CARM1 (PRMT4) was determined as 8.97 nM; in test [1] (Homo sapiens, RKO, 48 h), 121 nM.
The matching figures for `CNC[C@@H](O)COc1ccc(Cl)c(-c2nc(-c3c(C)noc3C)c(C)c(N3CC4(CC(N5CCC5)C4)C3)n2)c1` [Example 268]: 1.26 nM and 1350 nM.
With `CNC[C@@H](O)COc1ccc(Cl)c(-c2nc(-c3c(C)noc3C)c(C)c(N3CC4(CC(N5CC(OC)C5)C4)C3)n2)c1` [Example 269], the IC50 was 0.8 nM on Human CARM1 (PRMT4) and 355 nM in test [1] (Homo sapiens, RKO, 48 h).
As for `CNC[C@@H](O)COc1ccc(Cl)c(-c2nc(-c3c(C)noc3C)c(C)c(N3CC4(CC(N5CCOCC5)C4)C3)n2)c1` [Example 270], the IC50 is 4.95 nM at Human CARM1 (PRMT4) and 269 nM in test [1] (Homo sapiens, RKO, 48 h).

(Values after patent publication US20170305922A1, “CARM1 INHIBITORS AND USES THEREOF” (Epizyme, Inc., priority 2014, published 2017).)
